{"source": "paper PMC11843613", "about": "“Further Optimization of the mGlu1 PAM VU6024578/BI02982816: Discovery and Characterization of VU6033685” (ACS Chemical Neuroscience, 2025)", "key": {"[1]": {"assay": "Single IV bolus PK and tolerability in male beagle dogs", "format": "in vivo", "conditions": "male beagle dog, 0.5 mg/kg IV bolus"}, "[2]": {"assay": "Dose escalation PO PK study in mice", "format": "in vivo, mouse"}, "[3]": {"assay": "Kinetic solubility", "format": "physicochemical", "conditions": "kinetic from dmso stock"}, "[4]": {"assay": "Predicted hepatic clearance (dog)", "format": "in vitro ADME", "procedure": "at half log concentrations in DMSO were further diluted in assay buffer. The compounds or DMSO vehicle were added to cells and incubated for 2.5 min and an EC20 concentration of glutamate was added and incubated for 1 min. An ECmax concentration of glutamate was also added to cells that were incubated with DMSO vehicle to accurately calculate the EC20 calcium response. Data were normalized by subtracting the basal florescent peak before EC20 agonist addition from the maximal peak elicited by EC20 agonist and PAMs. Using GraphPad Prism 5.0, the concentration response curves were generated and the potencies of the mGlu1 PAMs were determined.\nPlasma protein binding: The protein binding of each compound was determined in plasma via equilibrium dialysis employing RED Plates (ThermoFisher Scientific, Rochester, NY). Plasma was added to the 96 well plate containing test compound and mixed thoroughly for a final concentration of 5 µM. […]\nEach compound was assayed in triplicate within the same 96-well plate. Fraction unbound was determined using the following equation […]\nAfter a 5 min preincubation, the reaction was initiated by addition of NADPH (1 mM). […] The in vitro half-life (T 1/2, min, Eq. 1), intrinsic clearance (CLint, mL/min/kg, Eq. 2) and subsequent predicted hepatic clearance (CLhep, mL/min/kg, Eq. 3) was determined […]"}, "[5]": {"test_system": "striatal DA release", "assay": "Electrically evoked striatal DA release in brain slices (fast scanning cyclic voltammetry)", "conditions": "10 μM PAM + 10 μM DHPG, mouse slices, 1 μM DHβE present", "procedure": "into the home cage. The arena is then cleaned with 70% ethanol in between animals. The day of the test the animals are habituated to the dosing room for 2 hours. The animals were administered VU6024578 (1-10 mg/kg p.o.) or vehicle (10% Tween 80) and were placed back into their homecage for 60 min. The animals were then injected with MK-801 (0.075 mg/kg 1 ml/kg s.c.) and placed back in the homecage for 30 min. The animals are then placed into the arena with two identical familiar objects for ten minutes and then placed back into the home cage. The animals are then placed back into the arena with one of the familiar objects replaced with a novel object at 120 min after the familiar object exposure. The activity of the animals are recorded and the time spent exploring each of the objects is scored by a blinded observer. Recognition index is determined by subtracting […] divided by total time spent exploring.\nBrain Slice Preparation and Fast Scanning Cyclic Voltammetry: […]\nElectrically-evoked dopamine overflow was monitored with carbon fiber electrodes as previously reported (Foster et al. 2014). […]"}}, "note": "Where two headings read alike, the source gives them in different places."}
{"smiles": "Cc1nc(C2CC2)ccc1CNC(=O)c1cc(-n2cccn2)ccc1Cl", "note": "[compound 8]", "values": [{"measurement": "adverse events in dogs", "setting": "[1]", "value": "all dogs displayed dizziness, salivation, and uncoordinated movements"}, {"measurement": "clearance", "setting": "[1]; plasma, read-out: CLp (dog)", "value": 10, "unit": "mL/min/kg"}, {"measurement": "Vd", "setting": "[1]; plasma, read-out: Vss (dog)", "value": 4.6, "unit": "L/kg"}, {"measurement": "half-life", "setting": "[1]; plasma, read-out: t1/2 (dog) (converted)", "value": 6.5, "unit": "h"}, {"measurement": "observations at >24-fold EC50 free brain", "setting": "[2]; mouse PO", "value": "without any observed AEs"}, {"measurement": "free brain concentration as fold of mouse EC50 at 500 mg/kg", "setting": "[2]; mouse PO 500 mg/kg", "value": "~90", "unit": "fold"}, {"measurement": "observations at 500 mg/kg", "setting": "[2]; mouse PO 500 mg/kg", "value": "all animals displayed uncoordinated movements and were cold to the touch"}, {"measurement": "free brain concentration reached without AEs", "setting": "[2]; mouse PO dose escalation", "value": "~1250", "unit": "nM"}, {"measurement": "free brain concentration as fold of mouse EC50 reached without AEs", "setting": "[2]; mouse PO dose escalation (50, 150, 500 mg/kg)", "value": "> 24", "unit": "fold"}, {"measurement": "solubility kinetic", "setting": "[3]; pH 2.2, aqueous buffer, read-out: Kinetic solubility pH 2.2", "value": "> 100", "unit": "µM"}, {"measurement": "solubility kinetic", "setting": "[3]; pH 6.8, aqueous buffer, read-out: Kinetic solubility pH 6.8", "value": "< 1", "unit": "µM"}, {"measurement": "Predicted CLhep (d)", "setting": "[4]", "value": 15.1, "unit": "mL/min/kg"}, {"measurement": "effect on striatal DA release when coapplied with subthreshold DHPG", "setting": "[5]", "value": "robust inhibition of DA release"}]}
